Measurements published in paper PMC8554203, “Inhibition of Bromodomain and Extra Terminal (BET) Domain Activity Modulates the IL-23R/IL-17 Axis and Suppresses Acute Graft-Versus-Host Disease” (Frontiers in Oncology, 2021).
Where two headings read alike, the source gives them in different places.

Assays:
BRD2 = target: T1, BRD2 (Homo sapiens, UniProt P25440); experiment: substrate binding (displacement) assay with engineered tandem bromodomain protein
T1 construct: BRD2-BD12 (engineered protein containing both bromodomains)

BRD4 = target: T2, BRD4 (Homo sapiens, UniProt O60885); experiment: as above; conditions: read-out: PLX2853 / IC50 (μM) ^a
T2 construct: BRD4-BD12 (engineered protein containing both bromodomains)

T1 sequence (P25440 74-453 limits assumed): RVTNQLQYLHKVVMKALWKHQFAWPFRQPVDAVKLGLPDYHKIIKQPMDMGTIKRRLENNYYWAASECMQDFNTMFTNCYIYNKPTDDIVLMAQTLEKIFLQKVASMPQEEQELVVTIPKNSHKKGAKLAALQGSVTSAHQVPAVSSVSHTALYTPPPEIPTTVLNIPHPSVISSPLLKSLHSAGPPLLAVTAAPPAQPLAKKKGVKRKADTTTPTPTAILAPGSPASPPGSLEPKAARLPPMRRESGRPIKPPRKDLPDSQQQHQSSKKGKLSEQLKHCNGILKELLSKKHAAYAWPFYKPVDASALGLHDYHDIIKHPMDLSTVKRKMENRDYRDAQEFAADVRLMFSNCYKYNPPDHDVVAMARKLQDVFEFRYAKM

| IC50 (BRD2) | IC50 (BRD4) | IC50 (BRD2; read-out: PLX2853 / IC50 (μM) ^a) | SMILES |
| --- | --- | --- | --- |
| 0.052 µM |  |  | Cc1noc(C)c1-c1cnc2c(-c3ccc(C(=O)O)cc3)cn([C@@H](C)c3ccccn3)c2c1 [PLX51107] |
|  | 0.0043 µM | 0.0073 µM | Cc1noc(C)c1-c1cnc2c(-c3ccc(C(=O)O)cc3)cn(C(C)(c3ccccn3)c3ccccn3)c2c1 [PLX2853] |
